Columns and labels:
NMDA receptor = experiment: NMDA-induced responses recorded in intact chick retina (eyecup, optic nerve DC potential); format: cell-based; details: APV 100 μM
Method: Eyecups were obtained from 2-to 5-day-old chicks and continuously superfused at 20-25° C. at a rate of 8 ml/min with Tyrodes solution (130 mM NaCl, 3 mM KCl, 17 mM dextrose, 20 mM NaHCO3, 0.01% w/v phenol red; bubbled with a gas mixture of 95% O2 and 5% CO2) containing 5 mM MgCl2 to reduce synaptic activity. […] Traces were triggered by the opening of two solenoid valves that shunted approximately 200 μl of agonist (1, 1-dimethyl-4-phenyl-piperazinium iodide, DMPP or NMDA) into the perfusion line, Agonists reached the preparation approximately 7s later. […] Some experiments were performed in the presence of 10 μg/ml catalase and 1 μg/ml superoxide dismutase. Antagonists, reducing agents, or oxidizing agents were introduced directly via the perfusate.

retinal ganglion cells = experiment: Survival of retinal ganglion cells exposed to glutamate (NMDA neurotoxicity); format: cell-based, rat; details: for NMDA receptor-mediated neurotoxicity / neuronal cell injury: oxidized DTT produced from reduced DTT with DTNB
Method: To investigate the influence of redox modulation on NMDA neurotoxicity, survival of an identified central neuron, the retinal ganglion cell, was monitored for 12-24 hr after a brief (5-10 min.) exposure to DTT. To determine the degree of killing specifically related to activation of the NMDA receptor, APV at 200 μM was added to sibling cultures. APV-preventable, glutamate-induced death was increased 70±9% with DTT treatment.
Retinal ganglion cell neurons were labeled in situ, dissociated from the retina, and cultured as follows. Retinal ganglion cells from 7- to 12-day-old Long-Evans rats were labeled and enzymatically dissociated as described by Leifer et al., Science 224: 303, 1984. Following rinse of the dissociated retinal cells with a physiological saline based on Hanks' salts (composition in mM: NaCl, 137; NaHCO3, 1; Na2HPO4, 0.34; KCl, 5,36; KH2PO4, 0.44; CaCl2, 1.25, MgSO4, 0.5; MgCl2, 0.5; N-2-hydroxyethyl-piperazine-N′-2-ethanesulfonic acid (HEPES), 5; dextrose, 22.2; Phenol Red, 0.001% v/v; adjusted to pH 7.2 with 0.3 M NaOH), the cells were mechanically dispersed and aliquoted to treatment vials. These vials contained control saline solution, or saline solution with either 0.5-2 mM DTT, or 0.5 mM DTT in the presence of 1 mM DTNB. Treatment groups with DTNB were readjusted to pH 7.2 with 0.3 M NaOH. Cells were agitated gently over a 5-10 min period. After treatment, 100 μl volumes of the cell suspension were plated onto glass coverslips coated with poly-L-lysine in 35×10 mm tissue-culture dishes containing 2 ml of culture medium. The cell culture medium was based on Eagle's minimum essential medium (MEM), modified so that it was nominally free of magnesium and contained 10 mM CaCl2 to enhance NMDA receptor-mediated neuro-toxicity. The medium was also supplemented with methylcellulose 0.7% w/v, gentamicin 1 μg/ml, dextrose 16 mM, and rat serum 5% v/v. Glutamate levels in the culture medium were monitored by HPLC analysis. Concentrations of glutamate added to the medium of each experiment to induce cell killing averaged 10 μM (day to day variability in neuronal cell death was most probably due to slight variations in the amount of endogenous glutamate or a glutamate-like substance in these cultures). The 100 μl aliquots of cell suspension diluted into the 2 ml of MEM produced a final concentration of 50 μM Mg^2+, as well as levels of DTT and DTNB at 5% of their initial treatment concentrations. The cell cultures were incubated for 12-24 hours at 37° C. in an atmosphere of 5% CO2/95% humidified air. Neuronal survival was then scored by counting retinal ganglion cells displaying uptake and cleavage of fluorescein diacetate to fluorescein, as described by Hahn et al. Proc. Nat. Acad. Sci. USA 85:6556, 1988.
Experiments were conducted in triplicate and repeated on eleven separate days. In order to compare results obtained on different days, data were normalized such that the total number of surviving neurons in a given experiment divided by the number of treatment categories (i.e., 4) equalled 100.
Retinal cells were cultured as described in Example 1. In these experiments transient exposure to the reduced form of DTT (500 μM) occurred in the presence of DTNB (1 mM).

NMDA receptors = details: 0.5-10 mM

NC(CCCP(=O)(O)O)C(=O)O (stereo not shown) [APV, 2-amino-5-phosphonovalerate]
NMDA-induced responses in native and reduced states (NMDA receptor): blocked NMDA-induced responses | vulnerability of neurons despite DTT treatment (retinal ganglion cells; 200 μM APV after DTT treatment): could be blocked | death of retinal ganglion cells exposed to glutamate in the culture medium (retinal ganglion cells; APV 200 μM, DTT transient exposure, 12-24 hr): prevented the death | neuronal survival compared to baseline (retinal ganglion cells; DTT 500 μM in the presence of DTNB 1 mM, APV cultures P<0.01): significantly greater than baseline

O[C@H]1CSSC[C@@H]1O [oxidized DTT, oxidized dithiotheritol]
NMDA receptor-mediated neurotoxicity / neuronal cell injury (retinal ganglion cells): does not effect neuronal cell injury | NMDA receptor-mediated neurotoxicity / neuronal cell injury (retinal ganglion cells; listed as oxidized dithiotheritol (DTT)): does not significantly affect

N[C@@H](CCC(=O)N[C@@H](CS)C(=O)NCC(=O)O)C(=O)O [reduced glutathione, glutathione]
protection against toxicity mediated at NMDA receptors (NMDA receptors): can protect

Source: US6525017B1, “Using glutathiane to protect neurons from injury” (The Children's Medical Center Corporation, priority 1989, dated 2003)
